Activity calls are given as the source filed them.
How the values were obtained:
[1] = target: Sphingosine 1-phosphate receptor 2 (Homo sapiens, UniProt O95136); assay: Late-stage fluorescence-based dose-response cell-based counterscreen assay to identify agonists of the Sphingosine 1-Phosphate Receptor 3 (S1P3): Sphingosine 1-Phosphate Receptor 2 (S1P2) agonist assay.; type: functional
[2] = target: Sphingosine 1-phosphate receptor 4 (Homo sapiens, UniProt O95977); assay: Late-stage fluorescence-based dose-response cell-based counterscreen assay to identify agonists of the Sphingosine 1-Phosphate Receptor 3 (S1P3): Sphingosine 1-Phosphate Receptor 4 (S1P4) agonist assay.; type: functional
Sphingosine 1-phosphate receptor 4, sequence (O95977 whole entry): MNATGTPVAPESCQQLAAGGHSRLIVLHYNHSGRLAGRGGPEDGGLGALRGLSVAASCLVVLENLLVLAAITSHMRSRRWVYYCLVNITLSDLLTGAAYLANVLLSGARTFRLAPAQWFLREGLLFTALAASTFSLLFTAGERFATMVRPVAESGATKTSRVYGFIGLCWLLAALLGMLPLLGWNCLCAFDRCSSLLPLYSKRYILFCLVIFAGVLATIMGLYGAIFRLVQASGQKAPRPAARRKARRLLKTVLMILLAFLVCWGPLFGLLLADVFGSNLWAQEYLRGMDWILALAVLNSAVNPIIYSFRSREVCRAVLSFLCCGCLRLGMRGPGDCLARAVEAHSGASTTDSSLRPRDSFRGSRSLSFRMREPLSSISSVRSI

CHO-K1 = assay: (§1) Counterscreen for antagonists of the orexin 1 receptor (OX1R; HCRTR1): Homogeneous time resolved fluorescence (HTRF)-based cell-based dose response assay to identify antagonists of the parental CHO-K1 cell line. [Related pubchem assays (depositor defined):AID434989, AID435008, AID463079, AID485270, AID492963, AID492964, AID492965, AID493232, AID504699, AID504701]; type: functional; conditions: Cricetulus griseus
Orexin receptor type 2 [3] = target: T1, Orexin receptor type 2 (Homo sapiens, UniProt O43614); assay: Counterscreen assay for antagonists of the orexin 1 receptor (OX1R; HCRTR1): Fluorescence-based cell-based dose response assay for antagonists of the orexin 2 receptor (OX2R; HCRTR2), run by assay provider.; type: functional
T1 sequence (O43614 whole entry): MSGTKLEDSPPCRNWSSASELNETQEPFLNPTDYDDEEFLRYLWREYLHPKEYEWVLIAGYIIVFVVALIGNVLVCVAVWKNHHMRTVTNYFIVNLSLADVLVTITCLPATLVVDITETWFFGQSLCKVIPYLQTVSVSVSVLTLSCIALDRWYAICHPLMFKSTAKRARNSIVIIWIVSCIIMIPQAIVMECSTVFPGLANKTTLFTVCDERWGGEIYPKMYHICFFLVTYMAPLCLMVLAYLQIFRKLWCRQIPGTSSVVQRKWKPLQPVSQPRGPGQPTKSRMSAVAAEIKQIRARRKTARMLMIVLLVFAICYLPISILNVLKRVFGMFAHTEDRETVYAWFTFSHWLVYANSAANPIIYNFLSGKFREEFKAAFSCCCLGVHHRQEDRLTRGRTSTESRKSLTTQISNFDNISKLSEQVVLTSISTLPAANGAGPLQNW

[4] = target: T2, Orexin/Hypocretin receptor type 1 (Homo sapiens, UniProt O43613); assay: (§2) Fluorescence-based cell-based high throughput dose response assay for antagonists of the orexin 1 receptor (OX1R; HCRTR1). [Related pubchem assays (depositor defined):AID434989, AID435008, AID463079, AID485270, AID492963, AID492964, AID492965, AID493232, AID504717, AID504718]; type: functional
T2 sequence (O43613 whole entry): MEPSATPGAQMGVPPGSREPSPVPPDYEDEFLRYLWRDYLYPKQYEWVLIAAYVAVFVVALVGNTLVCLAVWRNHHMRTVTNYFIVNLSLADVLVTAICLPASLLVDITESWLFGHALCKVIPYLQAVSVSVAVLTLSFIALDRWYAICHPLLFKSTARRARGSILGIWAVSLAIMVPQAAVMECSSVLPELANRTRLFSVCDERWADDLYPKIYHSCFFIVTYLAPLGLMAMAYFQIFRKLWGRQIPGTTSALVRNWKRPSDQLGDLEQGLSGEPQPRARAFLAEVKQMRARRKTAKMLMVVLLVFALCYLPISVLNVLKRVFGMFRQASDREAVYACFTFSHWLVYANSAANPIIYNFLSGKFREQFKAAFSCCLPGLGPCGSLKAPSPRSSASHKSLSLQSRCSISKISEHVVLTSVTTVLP

[5] = target: T2, Orexin/Hypocretin receptor type 1; assay: as §2, with “Homogeneous Time Resolved Fluorescence (HTRF)-based” for “Fluorescence-based”; type: functional
[6] = as §1, with “Fluorescence-based” for “Homogeneous time resolved fluorescence (HTRF)-based”, “cell-based high throughput” for “cell-based”, “CHO” for “CHO-K1”; type: functional
Orexin receptor type 2 [7] = target: T1, Orexin receptor type 2; assay: Counterscreen assay for antagonists of the orexin 1 receptor (OX1R; HCRTR1): Homogeneous Time Resolved Fluorescence (HTRF)-based cell-based dose response assay for antagonists of the orexin 2 receptor (OX2R; HCRTR2), run by assay provider.; type: functional
cells = type: functional
[8] = THP-1 cell cytotoxicity, dose response, cytotoxicity control, set 3 (AID 504852); type: functional; conditions: Mycobacterium tuberculosis
Insulin-degrading enzyme [9] = target: T3, Insulin-degrading enzyme (Homo sapiens, UniProt P14735); assay: activators of recombinant IDE enzyme, dose response, counter-screen for IDE activator project, biochemical, fluorescence polarization (AID 588681)
T3 sequence (P14735 whole entry): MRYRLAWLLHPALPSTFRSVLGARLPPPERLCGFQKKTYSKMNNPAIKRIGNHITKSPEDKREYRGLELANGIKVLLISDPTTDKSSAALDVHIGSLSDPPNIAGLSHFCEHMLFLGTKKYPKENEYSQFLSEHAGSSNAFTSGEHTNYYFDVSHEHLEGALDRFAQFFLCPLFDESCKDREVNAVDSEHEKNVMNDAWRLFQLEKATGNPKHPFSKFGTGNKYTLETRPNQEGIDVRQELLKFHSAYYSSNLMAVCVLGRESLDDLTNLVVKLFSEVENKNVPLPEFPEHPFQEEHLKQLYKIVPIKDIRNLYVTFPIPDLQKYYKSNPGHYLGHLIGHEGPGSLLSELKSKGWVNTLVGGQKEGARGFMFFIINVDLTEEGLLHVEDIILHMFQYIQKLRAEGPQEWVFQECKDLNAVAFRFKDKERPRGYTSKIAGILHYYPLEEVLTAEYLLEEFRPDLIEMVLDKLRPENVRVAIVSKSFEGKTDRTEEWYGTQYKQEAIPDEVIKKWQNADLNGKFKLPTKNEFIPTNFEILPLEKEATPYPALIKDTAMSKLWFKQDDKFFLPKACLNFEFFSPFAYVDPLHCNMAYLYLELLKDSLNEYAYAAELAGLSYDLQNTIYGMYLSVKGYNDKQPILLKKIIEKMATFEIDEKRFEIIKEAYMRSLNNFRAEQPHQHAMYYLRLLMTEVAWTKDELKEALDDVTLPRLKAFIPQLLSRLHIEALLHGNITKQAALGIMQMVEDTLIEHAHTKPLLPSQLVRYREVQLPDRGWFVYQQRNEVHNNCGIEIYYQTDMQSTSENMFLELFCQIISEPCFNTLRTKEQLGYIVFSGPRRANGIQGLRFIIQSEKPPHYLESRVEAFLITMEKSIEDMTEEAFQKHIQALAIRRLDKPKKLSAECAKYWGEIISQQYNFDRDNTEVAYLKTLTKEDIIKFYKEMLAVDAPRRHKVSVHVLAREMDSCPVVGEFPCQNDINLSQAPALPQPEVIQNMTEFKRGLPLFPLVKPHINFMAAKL

[10] = target: T4, RNA-binding protein pos-1 (Caenorhabditis elegans, UniProt G5EF15); assay: inhibitors of POS-1/mex-3 RNA binding, dose response, biochemical, fluorescence polarization (AID 1964);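 note: purified POS-1 fused to maltose binding protein made in E. coli; potency of compounds blocking POS-1 binding to fluorescent RNA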
T4 sequence (G5EF15 whole entry): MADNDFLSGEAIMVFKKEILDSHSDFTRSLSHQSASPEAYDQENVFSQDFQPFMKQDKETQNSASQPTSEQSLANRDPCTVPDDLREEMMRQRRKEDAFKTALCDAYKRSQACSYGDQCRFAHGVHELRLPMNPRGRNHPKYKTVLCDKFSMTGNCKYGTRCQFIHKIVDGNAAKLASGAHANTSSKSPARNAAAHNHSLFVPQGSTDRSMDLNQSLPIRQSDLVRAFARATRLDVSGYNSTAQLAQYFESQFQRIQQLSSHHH

HEK293 [11] = assay: optical interference in Abeta FP readout, dose response, artefact control for IDE activator project, biochemical, fluorescence polarization (AID 588442); type: functional, cell-based; conditions: Homo sapiens
HEK293 [12] = assay: HEK cell cytotoxicity by LDH release, dose response, cytotoxicity control for IDE activator project, fluorescence, HEK cells (AID 588440); type: functional, cell-based; conditions: Homo sapiens;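 note: cytotoxicity by LDH release measuring loss of membrane integrity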
Beta-lactamase [13] = target: Beta-lactamase (Pseudomonas aeruginosa, UniProt Q79MP6);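 note: biochemical dose-response test of metallo-beta-lactamase enzyme inhibition, read out by epi-absorbance; purified recombinant IMP-1 metallo-beta-lactamase with nitrocefin as substrate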
Beta-lactamase (Pseudomonas aeruginosa, UniProt Q79MP6), sequence (Q79MP6 whole entry): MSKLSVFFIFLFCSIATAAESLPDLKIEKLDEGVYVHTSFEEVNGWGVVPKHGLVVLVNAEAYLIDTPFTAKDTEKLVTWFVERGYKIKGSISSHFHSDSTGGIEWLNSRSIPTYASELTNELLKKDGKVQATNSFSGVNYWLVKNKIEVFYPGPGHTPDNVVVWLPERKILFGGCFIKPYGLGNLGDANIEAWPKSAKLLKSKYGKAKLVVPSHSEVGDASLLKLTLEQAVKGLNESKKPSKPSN

Insulin-degrading enzyme [14] = target: T3, Insulin-degrading enzyme; assay: activators of endogenous IDE in HEK cells, dose response, cell-based, fluorescence polarization (AID 588439); type: functional
Beta-lactamase [15] = target: Beta-lactamase (Salmonella choleraesuis (strain SC-B67), UniProt Q5J463)
Beta-lactamase (Salmonella choleraesuis (strain SC-B67), UniProt Q5J463), sequence (Q5J463 whole entry): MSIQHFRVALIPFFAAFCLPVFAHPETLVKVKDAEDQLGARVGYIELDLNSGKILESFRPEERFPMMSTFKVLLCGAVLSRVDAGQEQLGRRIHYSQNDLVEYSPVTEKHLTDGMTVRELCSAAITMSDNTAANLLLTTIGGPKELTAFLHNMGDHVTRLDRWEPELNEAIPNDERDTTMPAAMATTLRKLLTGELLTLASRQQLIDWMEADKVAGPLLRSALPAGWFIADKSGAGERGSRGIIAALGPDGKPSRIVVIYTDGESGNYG

Keap1/Nrf2 = Keap1/Nrf2 (Homo sapiens, UniProt Q14145); assay: Keap1-Nrf2 protein-protein interaction inhibitors, dose response, biochemical, fluorescence polarization, cherry-picked samples (AID 588683)
Keap1/Nrf2, sequence (Q16236 whole entry): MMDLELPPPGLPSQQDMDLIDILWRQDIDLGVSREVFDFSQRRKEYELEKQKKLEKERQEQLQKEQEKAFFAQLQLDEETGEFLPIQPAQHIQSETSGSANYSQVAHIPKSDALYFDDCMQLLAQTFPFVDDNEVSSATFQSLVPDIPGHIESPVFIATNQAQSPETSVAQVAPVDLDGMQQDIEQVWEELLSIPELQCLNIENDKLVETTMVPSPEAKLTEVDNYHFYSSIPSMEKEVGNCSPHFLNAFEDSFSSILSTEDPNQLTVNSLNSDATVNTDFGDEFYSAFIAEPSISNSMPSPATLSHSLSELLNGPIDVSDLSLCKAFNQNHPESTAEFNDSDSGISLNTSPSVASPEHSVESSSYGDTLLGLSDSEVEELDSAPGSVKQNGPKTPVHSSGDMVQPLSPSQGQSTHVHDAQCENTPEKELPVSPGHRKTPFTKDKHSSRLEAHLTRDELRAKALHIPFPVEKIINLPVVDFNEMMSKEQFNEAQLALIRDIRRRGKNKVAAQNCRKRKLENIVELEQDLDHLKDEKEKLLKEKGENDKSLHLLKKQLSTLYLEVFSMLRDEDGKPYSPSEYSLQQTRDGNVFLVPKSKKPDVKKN
Keap1/Nrf2, sequence (Q14145 whole entry): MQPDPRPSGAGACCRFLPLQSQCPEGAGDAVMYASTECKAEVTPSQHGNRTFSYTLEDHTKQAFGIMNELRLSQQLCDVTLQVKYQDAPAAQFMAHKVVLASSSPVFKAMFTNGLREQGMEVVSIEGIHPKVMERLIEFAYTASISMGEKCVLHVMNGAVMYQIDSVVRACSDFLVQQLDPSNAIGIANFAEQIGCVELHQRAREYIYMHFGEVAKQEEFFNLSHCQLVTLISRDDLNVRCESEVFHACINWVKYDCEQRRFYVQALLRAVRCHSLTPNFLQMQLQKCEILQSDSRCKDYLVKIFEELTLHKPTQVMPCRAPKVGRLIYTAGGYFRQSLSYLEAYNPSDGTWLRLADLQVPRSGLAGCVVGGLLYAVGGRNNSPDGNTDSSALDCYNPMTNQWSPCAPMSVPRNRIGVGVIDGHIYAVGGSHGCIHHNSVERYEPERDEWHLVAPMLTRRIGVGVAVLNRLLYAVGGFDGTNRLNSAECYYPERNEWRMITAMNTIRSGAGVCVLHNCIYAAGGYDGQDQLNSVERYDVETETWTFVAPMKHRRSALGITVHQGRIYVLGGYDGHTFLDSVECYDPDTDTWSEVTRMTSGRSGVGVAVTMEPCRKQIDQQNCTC

ORF 73 = target: T5, ORF 73 (Human herpesvirus 8, UniProt O40947); assay: inhibitors of C-LANA binding to LBS DNA, dose response, biochemical, fluorescence polarization, cherry-picked samples (AID 504725); set-up: species or system Human gammaherpesvirus 8;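 note: fluorescence polarization of a labeled DNA duplex reporting LANA DNA binding; potency is for inhibitors that block LANA binding to the DNA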
T5 sequence (O40947 whole entry): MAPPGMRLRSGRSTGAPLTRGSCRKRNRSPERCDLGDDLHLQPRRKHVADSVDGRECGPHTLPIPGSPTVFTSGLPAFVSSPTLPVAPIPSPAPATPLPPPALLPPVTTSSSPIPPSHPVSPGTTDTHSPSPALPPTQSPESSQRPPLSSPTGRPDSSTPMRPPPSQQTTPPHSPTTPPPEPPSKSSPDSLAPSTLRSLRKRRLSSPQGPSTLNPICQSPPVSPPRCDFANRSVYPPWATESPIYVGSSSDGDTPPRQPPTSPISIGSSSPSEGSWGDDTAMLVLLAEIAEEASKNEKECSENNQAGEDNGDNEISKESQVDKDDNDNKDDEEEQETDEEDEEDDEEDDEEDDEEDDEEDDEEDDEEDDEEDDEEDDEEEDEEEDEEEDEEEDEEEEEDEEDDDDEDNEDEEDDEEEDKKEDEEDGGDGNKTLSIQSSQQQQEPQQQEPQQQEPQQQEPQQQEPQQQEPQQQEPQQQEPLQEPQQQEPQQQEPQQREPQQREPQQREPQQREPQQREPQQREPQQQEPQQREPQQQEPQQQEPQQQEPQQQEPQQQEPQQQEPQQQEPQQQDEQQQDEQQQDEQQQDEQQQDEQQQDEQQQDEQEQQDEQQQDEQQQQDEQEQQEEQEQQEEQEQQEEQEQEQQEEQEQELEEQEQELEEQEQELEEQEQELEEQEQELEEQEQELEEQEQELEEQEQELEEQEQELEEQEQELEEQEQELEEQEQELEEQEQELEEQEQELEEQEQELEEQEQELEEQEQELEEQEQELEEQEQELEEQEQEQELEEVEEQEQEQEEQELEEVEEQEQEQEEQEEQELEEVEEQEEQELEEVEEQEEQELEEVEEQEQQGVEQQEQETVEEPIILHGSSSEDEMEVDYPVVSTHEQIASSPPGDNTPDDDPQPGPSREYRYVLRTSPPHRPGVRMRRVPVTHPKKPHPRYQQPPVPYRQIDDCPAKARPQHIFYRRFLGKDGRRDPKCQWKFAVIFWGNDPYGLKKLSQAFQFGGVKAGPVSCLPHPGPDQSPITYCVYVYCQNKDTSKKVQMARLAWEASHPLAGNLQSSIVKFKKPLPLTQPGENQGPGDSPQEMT

[16] = target: T6, Zinc finger protein mex-5 (Caenorhabditis elegans, UniProt Q9XUB2); assay: MEX-5/TCR-2 RNA interaction inhibitors, dose response, biochemical, C. elegans, fluorescence polarization (AID 1960)
T6 sequence (Q9XUB2 whole entry): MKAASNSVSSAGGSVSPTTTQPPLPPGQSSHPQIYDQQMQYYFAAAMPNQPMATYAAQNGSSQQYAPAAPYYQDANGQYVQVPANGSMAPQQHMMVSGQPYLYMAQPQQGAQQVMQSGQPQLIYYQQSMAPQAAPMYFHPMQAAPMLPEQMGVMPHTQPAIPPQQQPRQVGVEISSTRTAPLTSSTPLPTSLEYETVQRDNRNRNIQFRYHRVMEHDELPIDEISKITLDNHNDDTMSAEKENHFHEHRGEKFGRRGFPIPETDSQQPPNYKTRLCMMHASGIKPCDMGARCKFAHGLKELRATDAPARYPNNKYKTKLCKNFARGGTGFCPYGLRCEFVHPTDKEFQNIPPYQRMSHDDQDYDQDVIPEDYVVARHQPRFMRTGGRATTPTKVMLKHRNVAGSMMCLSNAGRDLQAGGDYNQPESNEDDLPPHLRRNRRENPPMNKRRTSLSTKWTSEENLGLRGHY

Sphingosine 1-phosphate receptor 2, sequence (O95136 whole entry): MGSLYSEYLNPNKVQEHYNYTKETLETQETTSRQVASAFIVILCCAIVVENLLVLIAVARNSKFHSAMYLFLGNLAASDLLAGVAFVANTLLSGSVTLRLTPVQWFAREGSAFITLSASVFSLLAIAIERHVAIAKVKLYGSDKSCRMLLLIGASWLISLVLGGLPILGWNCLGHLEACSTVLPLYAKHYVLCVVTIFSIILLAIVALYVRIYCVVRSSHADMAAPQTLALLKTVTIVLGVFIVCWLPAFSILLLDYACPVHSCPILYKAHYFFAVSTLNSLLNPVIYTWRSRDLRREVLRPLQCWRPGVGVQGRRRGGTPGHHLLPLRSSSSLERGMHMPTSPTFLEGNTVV

**Q.** With `CC1CCCCC1N(C(=O)c1cc(C2CC2)on1)C1CCCC1` (stereo not given) as the molecule, how does the EC50 [1] read?
**A.** The EC50 was > 50 µM (inactive).

**Q.** What about the EC50 [2] of the same molecule?
**A.** The EC50 was > 50 µM (inactive).

**Q.** With `Cc1ccc(C)n1-c1nn(S(=O)(=O)c2cccc3cccnc23)c2cccc(F)c12` as the molecule, how does the IC50 (CHO-K1) read?
**A.** The IC50 was > 66.2 µM (inactive).

**Q.** What about the IC50 (Orexin receptor type 2 [3]) of the same molecule?
**A.** Its IC50 is 29.3 µM (inactive).

**Q.** And the IC50 [4]?
**A.** Its IC50 is 45 µM (inactive).

**Q.** What about the IC50 [5] of the same molecule?
**A.** The IC50 was 1.93 µM (active).

**Q.** And the IC50 [6]?
**A.** Its IC50 is > 49.8 µM (inactive).

**Q.** What about the IC50 (Orexin receptor type 2 [7]) of the same molecule?
**A.** The IC50 was > 50 µM (inactive).

**Q.** Which IC50 (cells) does the source give for `Cc1ccc(NC(=O)COC(=O)CCc2c[nH]c3ccccc23)cc1[N+](=O)[O-]` here?
**A.** Its IC50 is 1.84 µM (active).

**Q.** And the CC50 [8]?
**A.** Its CC50 is > 100 µM (active).

**Q.** For `O=C1c2cccc3c(O)ccc(c23)C(=O)N1c1ccc(Cl)cc1`, which EC50 (Insulin-degrading enzyme [9]) is on record?
**A.** Its EC50 is > 54.7 µM (inactive).

**Q.** What about the EC50 [10] of the same molecule?
**A.** Its EC50 is 7.11 µM (inconclusive).

**Q.** What about the EC50 (HEK293 [11]) of the same molecule?
**A.** Its EC50 is > 54.7 µM (inactive).

**Q.** What about the IC50 (HEK293 [12]) of the same molecule?
**A.** The IC50 was > 89.2 µM (inactive).

**Q.** And the IC50 (Beta-lactamase [13])?
**A.** Its IC50 is 19.8 µM (inactive).

**Q.** And the EC50 (Insulin-degrading enzyme [14])?
**A.** Its EC50 is > 54.7 µM (inactive).

**Q.** And the IC50 (Beta-lactamase [15])?
**A.** The IC50 was 7.95 µM (active).

**Q.** What about the AC50 (Keap1/Nrf2) of the same molecule?
**A.** Its AC50 is 2.53 µM (active).

**Q.** And the AC50 (ORF 73)?
**A.** The AC50 was 1.93 µM (active).

**Q.** What about the EC50 [16] of the same molecule?
**A.** Its EC50 is 0.289 µM (inconclusive).

From ChEMBL document CHEMBL1201862, “PubChem BioAssay data set” (2004)
